Measurements published in US11013786B2, “Therapy” (SELECTIMMUNE PHARMA AB, priority 2015, dated 2021).
“Also recorded” adds a separate entry of the source. Peptide text beside a SMILES is read from it. * marks the point of attachment. Cbz = O=C(OCc1ccccc1)*; CH2F = FC*

Legend:
[1] = system: Asc^−/− mice infected with E. coli CFT073; test: Acute cystitis immunotherapy in the experimental urinary tract infection model (Asc−/− mice infected with E. coli CFT073); format: in vivo; conditions: for macroscopic bladder pathology, edema and hyperemia: vs untreated
IL-1β = IL-1β in urine of treated infected Asc−/− mice (Western blot analysis of urine samples); format: in vivo; conditions: CFT073, IL-1RA (Anakinra) 1 mg i.p. daily
Description: IL-1β, IL-6 and IL-8 concentrations in filtered supernatants (Syringe Filter w/0.2 um PES, VWR) were determined by Immulite 1000 (Siemens) and Il-1β concentrations in cell supernatants or urine by Human or Mouse Il-1b/IL-1F2 DuoSet ELISA kits (R&D Systems). Urine MMP-7 levels were quantified with Human total MMP-7 Immunoassay Quantikine® ELISA (R&D Systems).
(§1) Cells were cultured as described above, but in particular in 6-well plates (7×10^5 cells/well, Thermo Fisher Scientific), lysed with RIPA lysis buffer, supplemented with protease and phosphatase inhibitors (Roche Diagnostics). They may then be fractionated using NE-PER Nuclear and Cytoplasmic extraction reagents (Thermo Scientific). For Caspase inhibition, cells were pre-incubated with Z-VAD(OMe)-FMK (#BML-P416-0001, Enzo Life Science, 100 μM, 30 min). Supernatants were filtered and concentrated by trichloroacetic acid precipitation, followed by acetone desiccation. […] Bands were quantified by ImageJ.
To address the contribution of MMP-7 to pathology, Asc^−/− mice were also treated with an MMP inhibitor (Batimastat), (0.5 mg in 100 μl of PBS i.p. 30 minutes before, first three and last three days of infection, FIG. 6A). […] By immunohistochemistry, some retention of unprocessed IL-1β in bladder tissue was detected, consistent with the need for MMP-7 and IL-1R to secrete mature IL-1β.

IL-1β processing = IL-1β processing in infected human bladder epithelial cells with caspase inhibition (Western blot); format: cell-based; conditions: human bladder epithelial cells infected with acute cystitis strains, 4 h, pre-incubated with inhibitor 100 μM, 30 min
Description: as §1, with “ImageJ. […]” for “ImageJ.”
Cell lysates and supernatants from infected cells were subjected to Western blot analysis, with antibodies specific for IL-1β. Two fragments of approximately 29 kDa and 16-18 kDa were detected, corresponding to the N-terminal pro-piece and mature IL-1β.

[2] = CFT073, Anakinra 1 mg i.p. daily, 7 days

Row | Compound | mucosal integrity [1, 2] | mucosal neutrophil infiltrate [1, 2] | urine neutrophil numbers ([1]; CFT073, Anakinra 1 mg i.p. daily, 7 days after infection) | pathology in bladder tissue sections ([1]; CFT073, Anakinra 1 mg i.p. daily, 7 days, H&E) | macroscopic bladder pathology, edema and hyperemia [1, 2] | macroscopic bladder pathology, edema and hyperemia ([1]; CFT073, Anakinra 1 mg i.p. daily, 7 days, listed as IL-1RA) | bacterial counts ([1]; CFT073, Anakinra 1 mg i.p. daily, urine, 7 days after infection) | therapeutic effect / protection from acute cystitis ([1]; E. coli CFT073, Anakinra 1 mg in 100 μl PBS i.p. 30 min before and daily after infection, 7 days, vs untreated Asc−/− mice) | mature IL-1β in urine (IL-1β) | inhibition of IL-1β processing (IL-1β processing)
1 | Anakinra: IL-1 receptor antagonist, Anakinra (Kineret, SOBI) | maintained | prevented | low | marked reduction | protected | prevented | remained elevated | dramatic therapeutic effect; also recorded: protects; also recorded: prevented | loss | 
2 | COC(=O)C[C@H](NC(=O)[C@H](C)NC(=O)[C@@H](NC(=O)OCc1ccccc1)C(C)C)C(=O)CF [Z-VAD, Z-VAD(OMe)-FMK] (Cbz-Val-Ala-Asp(OMe)-CH2F) |  |  |  |  |  |  |  |  |  | about 20%
